From EPA's ToxRefDB 2

How the values were obtained:
mouse [1] = conditions: Sub-acute repeat dose toxicity, Oral, Gavage/Intubation, dose end: 7 day, group: systemic
mouse [2] = conditions: Sub-acute repeat dose toxicity, Oral, Gavage/Intubation, dose end: 7 day, group: systemic; remark: listed apart in the source
dog [3] = conditions: Sub-acute repeat dose toxicity, beagle, Oral, Gavage/Intubation, dose end: 7 day, group: systemic
dog [4] = conditions: Chronic toxicity, beagle, Oral, Gavage/Intubation, dose end: 274 day, group: systemic
mouse [5] = conditions: Fertility (Segment I), Oral, Gavage/Intubation, dose end: 1 generation
mouse [6] = conditions: Chronic toxicity, Oral, Gavage/Intubation, dose end: 186 day, group: systemic
rat [7] = conditions: Sub-acute repeat dose toxicity; Oral; Gavage/Intubation; dose end: 7 day; group: systemic; systemic / clinical chemistry / globulins / globulins + systemic / clinical chemistry / bilirubin / total bilirubin + systemic / organ …
rat [8] = conditions: Sub-acute repeat dose toxicity; Oral; Gavage/Intubation; dose end: 7 day; group: systemic; systemic / clinical chemistry / cholesterol / cholesterol + systemic / clinical chemistry / gamma glutamyl transferase (ggt) / gamma …
rabbit = conditions: Sub-acute repeat dose toxicity, Oral, Gavage/Intubation, dose end: 7 day, group: systemic
rat [9] = conditions: Sub-acute repeat dose toxicity; Oral; Feed; dose end: 14 day; group: systemic; systemic / in life observation / clinical signs / defecation + systemic / in life observation / clinical signs / hunched posture + systemic…
rat [10] = conditions: Sub-acute repeat dose toxicity, Oral, Gavage/Intubation, dose end: 7 day, group: systemic
rat [11] = conditions: Sub-acute repeat dose toxicity, Oral, Gavage/Intubation, dose end: 14 day, group: systemic
rat [12] = conditions: Fertility (Segment I), sprague dawley, Oral, Gavage/Intubation, dose end: 7 GD
rat [13] = conditions: Prenatal developmental toxicity study, sprague dawley, Oral, Gavage/Intubation, dose end: 17 GD, group: maternal
rat [14] = conditions: Fertility (Segment I), sprague dawley, Oral, Gavage/Intubation, dose end: 49 day
rat [15] = conditions: Chronic toxicity, sprague dawley, Oral, Gavage/Intubation, dose end: 6 month, group: systemic
dog [16] = conditions: Chronic toxicity; beagle; Oral; Capsule; dose end: 6 month; group: systemic; systemic / clinical chemistry / potassium / potassium + systemic / in life observation / body weight / body weight + systemic / in life …
mouse [17] = conditions: Sub-acute repeat dose toxicity, cd1, Oral, Gavage/Intubation, dose end: 4 week, group: systemic
[18] = systemic / clinical chemistry / cholesterol / cholesterol + systemic / pathology microscopic / liver / vacuolization + systemic / clinical …
[19] = systemic / clinical chemistry / creatinine / creatinine + systemic / clinical chemistry / potassium / potassium + systemic / in life …
[20] = systemic / organ weight / liver / absolute
[21] = systemic / clinical chemistry / alanine aminotransferase (alt/sgpt) / alanine aminotransferase (alt/sgpt) + systemic / pathology microscopic…
[22] = systemic / clinical chemistry / alkaline phosphatase (alp/alk) / alkaline phosphatase (alp/alk) + systemic / clinical chemistry / …
[23] = systemic / in life observation / clinical signs / defecation (diarrhea) + systemic / in life observation / clinical signs / soft stools
[24] = systemic / in life observation / clinical signs / defecation (diarrhea) + systemic / in life observation / clinical signs / soft stools + …
[25] = group: maternal, reproductive / reproductive performance / mating / mating + reproductive / reproductive performance / precoital interval / precoital …
[26] = group: parental, systemic / in life observation / body weight / body weight gain + systemic / in life observation / food consumption / food consumption + …
[27] = systemic / clinical chemistry / bilirubin / total bilirubin + systemic / in life observation / body weight / body weight + systemic / organ …
[28] = systemic / in life observation / body weight / body weight + systemic / in life observation / clinical signs / tachypnea + systemic / in …
[29] = systemic / clinical chemistry / cholesterol / cholesterol + systemic / clinical chemistry / protein / protein + systemic / hematology / …
[30] = systemic / clinical chemistry / cholesterol / cholesterol + systemic / hematology / eosinophils / eosinophils + systemic / clinical …
[31] = systemic / clinical chemistry / cytochrome p450, nos / cytochrome p450, nos + systemic / clinical chemistry / glucose / glucose + systemic…
[32] = systemic / clinical chemistry / cytochrome p450, nos / cytochrome p450, nos + systemic / in life observation / clinical signs / lacrimation …
[33] = group: maternal, reproductive / reproductive performance / estrous cycle / abnormal + reproductive / reproductive performance / estrous cycle / corpora lutea…
[34] = group: maternal, reproductive / reproductive performance / implantations / implantations
[35] = group: parental, systemic / in life observation / body weight / body weight gain + systemic / in life observation / clinical signs / abnormal respiratory …
[36] = reproductive / reproductive performance / implantations / implantations + reproductive / reproductive performance / postimplantation loss / …
[37] = systemic / in life observation / body weight / body weight + systemic / in life observation / body weight / body weight gain + systemic / in…
[38] = group: maternal, reproductive / reproductive performance / fertility / fertility + reproductive / reproductive performance / pregnancy index / pregnancy …
[39] = group: parental, systemic / in life observation / body weight / body weight + systemic / in life observation / body weight / body weight gain + systemic / in…
[40] = systemic / clinical chemistry / albumin / albumin + systemic / clinical chemistry / alkaline phosphatase (alp/alk) / alkaline phosphatase (…
[41] = systemic / clinical chemistry / albumin / albumin + systemic / clinical chemistry / aspartate aminotransferase (ast/sgot) / aspartate …
[42] = systemic / in life observation / clinical signs / alopecia + systemic / in life observation / clinical signs / external lesion(s) + systemic…
[43] = systemic / in life observation / clinical signs / scabbing + systemic / in life observation / body weight / body weight + systemic / in life…

Structure (SMILES): CCc1nn(CCO)c(CC)c1Oc1cc(C#N)cc(C#N)c1 [Lersivirine]
- LOAEL (mouse [1]; [18]): > 250 mg/kg/day
- NOAEL (mouse [1]; [18]): ≥ 250 mg/kg/day
- NEL (mouse [1]; systemic / organ weight / liver / absolute + systemic / pathology microscopic / liver / hypertrophy): < 35 mg/kg/day
- LOAEL (mouse [2]; [19]): > 750 mg/kg/day
- NOAEL (mouse [2]; [19]): ≥ 750 mg/kg/day
- LEL (mouse [2]; [20]): 70 mg/kg/day
- NEL (mouse [2]; [20]): < 70 mg/kg/day
- LOAEL (dog [3]; [21]): > 150 mg/kg/day
- NOAEL (dog [3]; [21]): ≥ 150 mg/kg/day
- LEL (dog [3]; [22]): 10 mg/kg/day
- NEL (dog [3]; [22]): < 10 mg/kg/day
- LEL (dog [4]; [23]): 5 mg/kg/day
- NEL (dog [4]; [23]): < 5 mg/kg/day
- LOAEL (dog [4]; [24]): > 45 mg/kg/day
- NOAEL (dog [4]; [24]): ≥ 45 mg/kg/day
- LEL (mouse [5]; [25]): 700 mg/kg/day
- LOAEL (mouse [5]; [25]): > 700 mg/kg/day
- NEL (mouse [5]; [25]): 200 mg/kg/day
- NOAEL (mouse [5]; [25]): ≥ 700 mg/kg/day
- LEL (mouse [5]; [26]): 700 mg/kg/day
- LOAEL (mouse [5]; [26]): > 700 mg/kg/day
- NEL (mouse [5]; [26]): 200 mg/kg/day
- NOAEL (mouse [5]; [26]): ≥ 700 mg/kg/day
- LEL (mouse [6]; [22]): 70 mg/kg/day
- NEL (mouse [6]; [22]): < 70 mg/kg/day
- LOAEL (mouse [6]; [27]): > 700 mg/kg/day
- NOAEL (mouse [6]; [27]): ≥ 700 mg/kg/day
- LOAEL (rat [7]): > 150 mg/kg/day
- NEL (rat [7]): < 150 mg/kg/day
- NOAEL (rat [7]): ≥ 150 mg/kg/day
- LOAEL (rat [8]): > 35 mg/kg/day
- NEL (rat [8]): < 35 mg/kg/day
- NOAEL (rat [8]): ≥ 35 mg/kg/day
- LOAEL (rabbit; [28]): > 500 mg/kg/day
- NEL (rabbit; [28]): 20 mg/kg/day
- NOAEL (rabbit; [28]): ≥ 500 mg/kg/day
- LEL (rabbit; systemic / in life observation / clinical signs / tachypnea + systemic / in life observation / food consumption / food consumption): 200 mg/kg/day
- LOAEL (rat [9]): > 1500 mg/kg/day
- NEL (rat [9]): 750 mg/kg/day
- NOAEL (rat [9]): ≥ 1500 mg/kg/day
- LEL (rat [10]; [29]): 70 mg/kg/day
- NEL (rat [10]; [29]): < 70 mg/kg/day
- LOAEL (rat [10]; [30]): > 1000 mg/kg/day
- NOAEL (rat [10]; [30]): ≥ 1000 mg/kg/day
- LOAEL (rat [11]; [31]): > 300 mg/kg/day
- NOAEL (rat [11]; [31]): ≥ 300 mg/kg/day
- LEL (rat [11]; [32]): 20 mg/kg/day
- NEL (rat [11]; [32]): < 20 mg/kg/day

Structure (SMILES): CCc1c(C(=O)NN2CCCCC2)nn(-c2ccc(Cl)cc2Cl)c1-c1ccc(Br)cc1 [Surinabant]
- LOAEL (rat [12]; [33]): 50 mg/kg/day
- NOAEL (rat [12]; [33]): 10 mg/kg/day
- LEL (rat [12]; [34]): 10 mg/kg/day
- NEL (rat [12]; [34]): < 10 mg/kg/day
- LEL (rat [12]; [35]): 10 mg/kg/day
- LOAEL (rat [12]; [35]): > 100 mg/kg/day
- NEL (rat [12]; [35]): < 10 mg/kg/day
- NOAEL (rat [12]; [35]): ≥ 100 mg/kg/day
- LOAEL (rat [13]; [36]): > 100 mg/kg/day
- NOAEL (rat [13]; [36]): ≥ 100 mg/kg/day
- LEL (rat [13]; [37]): 10 mg/kg/day
- NEL (rat [13]; [37]): < 10 mg/kg/day
- LEL (rat [14]; [38]): 300 mg/kg/day
- LOAEL (rat [14]; [38]): 300 mg/kg/day
- NEL (rat [14]; [38]): 100 mg/kg/day
- NOAEL (rat [14]; [38]): 100 mg/kg/day
- LEL (rat [14]; [39]): 100 mg/kg/day
- NEL (rat [14]; [39]): < 100 mg/kg/day
- LOAEL (rat [14]; group: parental, systemic / pathology gross / sperm measure / sperm count): 300 mg/kg/day
- NOAEL (rat [14]; group: parental, systemic / pathology gross / sperm measure / sperm count + systemic / in life observation / body weight / body weight + systemic / in life …): 100 mg/kg/day
- LOAEL (rat [15]; [40]): > 100 mg/kg/day
- NOAEL (rat [15]; [40]): ≥ 100 mg/kg/day
- LEL (rat [15]; [41]): 10 mg/kg/day
- NEL (rat [15]; [41]): < 10 mg/kg/day
- LEL (dog [16]): 1.5 mg/kg/day
- LOAEL (dog [16]): 1.5 mg/kg/day
- NEL (dog [16]): < 1.5 mg/kg/day
- NOAEL (dog [16]): < 1.5 mg/kg/day
- LOAEL (mouse [17]; [42]): > 4000 mg/kg/day
- NOAEL (mouse [17]; [42]): ≥ 4000 mg/kg/day
- LEL (mouse [17]; [43]): 1000 mg/kg/day
- NEL (mouse [17]; [43]): < 1000 mg/kg/day
